Laboratory results as given in US20230192661A1, “1, 4, 5, 6-TETRAHYDROPYRIMIDINE-2-AMINE DERIVATIVE” (UBE Corporation, priority 2020, published 2023).

Each molecule was assayed against T1, αvβ6 (Homo sapiens, UniProt P06756+P18564) (assay: αvβ6 cell adhesion inhibition test (HT-29 cells on recombinant human LAP protein)). Settings: recombinant human LAP coating, 200 μM MnCl2, 1 hour, read-out: IC50 (rate of inhibition of cell adhesion, αvβ6).
T1 construct: endogenous in cells; host or cells: HT-29 cells
Type: cell-based
Experimental: Test Example 2 was performed by partially modifying the method of Henderson et al. (Nat Med., 19 (12), 1617-24, 2013). In Test Example 2, the same reagents as in Test Example 1 were used unless otherwise specified.
Recombinant human LAP protein (manufactured by R&D Systems, Inc., 246-LP-025) was prepared at […] with PBS, dispensed at 100 μL/well to a 96-well plate, and left standing overnight. The plate was washed with HBSS, then subjected to blocking treatment with DMEM containing 1% BSA, and used as a coated plate in the adhesion test.
HT-29 cells cultured in McCoy's 5A medium (manufactured by Thermo Fisher Scientific, Inc., 16600) containing 10% FBS and 1% penicillin/streptomycin/amphotericin B were recovered and suspended in DMEM containing 0.1% BSA and 200 μM MnCl2 to prepare a cell suspension. A test compound was added thereto.
The cell suspension of 5×10^5 cells/mL containing the test compound was added at 100 μL/well to the coated plate and left standing for 1 hour in a 5% CO2 incubator (37° C.). One hour later, the supernatant was removed, and the plate was washed with HBSS containing 200 μM MnCl2. The cells that adhered to each well in the plate were stained with crystal violet, and the cells were lysed, followed by absorbance measurement. Inhibition without substrate coating was defined as 100% inhibition, and inhibition when DMSO was added instead of the test compound was defined as 0% inhibition. The rate of inhibition of cell adhesion by the test compound was calculated according to the following expression.
Rate of inhibition of cell adhesion (%)=[1−{(Absorbance in the case of adding the test compound)−(Absorbance without substrate coating)}/{(Absorbance in the case of adding DMS)−(Absorbance without substrate coating)}]×100
An IC50 value was calculated from the rate of inhibition of cell adhesion by the test compound. A: IC50<3 nM, B: 3 nM≤IC50<10 nM, C: 10 nM≤IC50<30 nM, D: 30 nM≤IC50<100 nM, or E: IC50≥100 nM.

T1 sequence (P06756 31-889 limits assumed): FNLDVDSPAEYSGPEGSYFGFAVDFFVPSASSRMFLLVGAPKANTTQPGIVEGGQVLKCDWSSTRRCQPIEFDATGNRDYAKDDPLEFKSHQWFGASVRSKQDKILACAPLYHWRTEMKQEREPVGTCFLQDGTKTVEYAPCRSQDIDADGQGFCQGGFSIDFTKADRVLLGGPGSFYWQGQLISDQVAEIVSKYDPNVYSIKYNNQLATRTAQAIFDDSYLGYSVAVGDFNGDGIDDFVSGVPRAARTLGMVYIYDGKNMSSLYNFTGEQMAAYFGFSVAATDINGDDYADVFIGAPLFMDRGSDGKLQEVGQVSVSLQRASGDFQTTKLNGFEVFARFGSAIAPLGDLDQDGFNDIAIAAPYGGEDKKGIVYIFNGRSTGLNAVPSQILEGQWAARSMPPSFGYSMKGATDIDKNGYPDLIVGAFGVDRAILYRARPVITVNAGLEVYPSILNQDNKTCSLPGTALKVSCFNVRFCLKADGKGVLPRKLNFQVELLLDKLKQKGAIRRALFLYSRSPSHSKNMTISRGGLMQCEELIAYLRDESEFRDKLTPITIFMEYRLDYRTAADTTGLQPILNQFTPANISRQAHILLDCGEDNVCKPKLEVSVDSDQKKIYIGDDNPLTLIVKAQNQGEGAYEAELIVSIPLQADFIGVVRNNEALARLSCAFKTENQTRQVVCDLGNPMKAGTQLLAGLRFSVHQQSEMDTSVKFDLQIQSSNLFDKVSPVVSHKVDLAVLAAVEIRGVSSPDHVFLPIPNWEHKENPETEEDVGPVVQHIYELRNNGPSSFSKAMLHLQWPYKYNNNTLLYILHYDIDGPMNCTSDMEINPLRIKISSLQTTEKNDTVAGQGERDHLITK
T1 sequence (P06756 891-1048 limits assumed): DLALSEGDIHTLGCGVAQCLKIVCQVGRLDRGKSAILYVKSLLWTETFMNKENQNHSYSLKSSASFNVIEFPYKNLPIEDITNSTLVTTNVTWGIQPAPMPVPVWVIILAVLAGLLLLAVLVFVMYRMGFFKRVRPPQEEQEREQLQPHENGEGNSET
T1 sequence (P18564 22-788): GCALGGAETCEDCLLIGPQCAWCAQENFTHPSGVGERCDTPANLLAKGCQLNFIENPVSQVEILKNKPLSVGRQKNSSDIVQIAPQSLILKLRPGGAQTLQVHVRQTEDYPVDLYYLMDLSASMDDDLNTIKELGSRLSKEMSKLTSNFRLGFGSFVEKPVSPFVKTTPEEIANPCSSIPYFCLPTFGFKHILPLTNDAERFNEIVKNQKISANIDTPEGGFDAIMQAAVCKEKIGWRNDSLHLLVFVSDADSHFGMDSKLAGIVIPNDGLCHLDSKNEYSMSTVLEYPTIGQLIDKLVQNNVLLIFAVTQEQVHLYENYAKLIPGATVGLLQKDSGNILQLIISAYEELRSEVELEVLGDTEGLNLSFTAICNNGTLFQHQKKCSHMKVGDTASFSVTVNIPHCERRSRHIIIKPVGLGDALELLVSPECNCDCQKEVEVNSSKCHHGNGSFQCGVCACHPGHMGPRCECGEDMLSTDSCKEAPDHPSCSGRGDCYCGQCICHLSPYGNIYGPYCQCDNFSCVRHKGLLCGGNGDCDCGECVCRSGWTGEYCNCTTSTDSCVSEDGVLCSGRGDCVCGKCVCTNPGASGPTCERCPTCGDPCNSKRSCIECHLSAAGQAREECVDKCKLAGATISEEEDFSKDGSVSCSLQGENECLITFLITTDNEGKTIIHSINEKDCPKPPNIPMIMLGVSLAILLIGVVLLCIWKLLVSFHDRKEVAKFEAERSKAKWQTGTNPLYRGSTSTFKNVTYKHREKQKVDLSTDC

Structure (SMILES)	IC50 [nM]
O=C(O)C[C@H](NC(=O)CNC(=O)c1cc(NC2=NCC(F)CN2)c2cn[nH]c2c1)c1cc(Br)ccc1F (stereo partly drawn) [Example 23-(b), (3S)-3-(5-bromo-2-fluorophenyl)-3-(2-(4-((5-fluoro-1,4,5,6-tetrahydropyrimidin-2-yl)amino)-1H-indazole-6-carboxamido)acetamido)propanoic acid]	3 to 10
O=C(O)C[C@H](NC(=O)CNC(=O)c1cc(NC2=NCC(F)CN2)c2cn[nH]c2c1)c1cc(OC(F)F)cc(C(F)(F)F)c1 (stereo partly drawn) [Example 24-(b), (3S)-3-(3-(difluoromethoxy)-5-(trifluoromethyl)phenyl)-3-(2-(4-((5-fluoro-1,4,5,6-tetrahydropyrimidin-2-yl)amino)-1H-indazole-6-carboxamido)acetamido)propanoic acid]	< 3
O=C(O)C[C@H](NC(=O)CNC(=O)c1cc(NC2=NCC(F)CN2)c2cn[nH]c2c1)c1cc(Cl)cc(OC(F)F)c1 (stereo partly drawn) [Example 25-(b), (3S)-3-(3-chloro-5-(difluoromethoxy)phenyl)-3-(2-(4-((5-fluoro-1,4,5,6-tetrahydropyrimidin-2-yl)amino)-1H-indazole-6-carboxamido)acetamido)propanoic acid]	< 3
O=C(O)C[C@H](NC(=O)CNC(=O)c1cc(NC2=NCC(F)CN2)c2cn[nH]c2c1)c1cc(Br)cc(OC(F)F)c1 (stereo partly drawn) [Example 26-(b), (3S)-3-(3-bromo-5-(difluoromethoxy)phenyl)-3-(2-(4-((5-fluoro-1,4,5,6-tetrahydropyrimidin-2-yl)amino)-1H-indazole-6-carboxamido)acetamido)propanoic acid]	< 3
O=C(O)C[C@H](NC(=O)CNC(=O)c1cc(NC2=NCC(F)CN2)c2cn[nH]c2c1)c1ccc(F)c(OC(F)F)c1 (stereo partly drawn) [Example 27-(b), (3S)-3-(3-(difluoromethoxy)-4-fluorophenyl)-3-(2-(4-((5-fluoro-1,4,5,6-tetrahydropyrimidin-2-yl)amino)-1H-indazole-6-carboxamido)acetamido)propanoic acid]	3 to 10
O=C(O)C[C@H](NC(=O)CNC(=O)c1cc(NC2=NCC(F)CN2)c2cn[nH]c2c1)c1cc(OC(F)F)ccc1F (stereo partly drawn) [Example 28-(b), (3S)-3-(5-(difluoromethoxy)-2-fluorophenyl)-3-(2-(4-((5-fluoro-1,4,5,6-tetrahydropyrimidin-2-yl)amino)-1H-indazole-6-carboxamido)acetamido)propanoic acid]	< 3
O=C(O)C[C@H](NC(=O)CNC(=O)c1cc(NC2=NCC(F)CN2)c2cn[nH]c2c1)c1cc(OC(F)F)cc(-n2cccn2)c1 (stereo partly drawn) [Example 29-(b), (3S)-3-(3-(difluoromethoxy)-5-(1H-pyrazol-1-yl)phenyl)-3-(2-(4-((5-fluoro-1,4,5,6-tetrahydropyrimidin-2-yl)amino)-1H-indazole-6-carboxamido)acetamido)propanoic acid]	< 3
O=C(O)C[C@H](NC(=O)CNC(=O)c1cc(NC2=NCC(F)CN2)c2cn[nH]c2c1)c1cc(OC(F)F)cc(OC(F)F)c1 (stereo partly drawn) [Example 30-(b), (3S)-3-(3,5-bis(difluoromethoxy)phenyl)-3-(2-(4-((5-fluoro-1,4,5,6-tetrahydropyrimidin-2-yl)amino)-1H-indazole-6-carboxamido)acetamido)propanoic acid]	< 3
O=C(O)C[C@H](NC(=O)CNC(=O)c1cc(NC2=NCC(F)CN2)c2cn[nH]c2c1)c1cc(Cl)cc(OC(F)(F)F)c1 (stereo partly drawn) [Example 31-(b), (3S)-3-(3-chloro-5-(trifluoromethoxy)phenyl)-3-(2-(4-((5-fluoro-1,4,5,6-tetrahydropyrimidin-2-yl)amino)-1H-indazole-6-carboxamido)acetamido)propanoic acid]	< 3
O=C(O)C[C@H](NC(=O)CNC(=O)c1cc(NC2=NCC(F)CN2)c2cn[nH]c2c1)c1cc(Br)cc(OC(F)(F)F)c1 (stereo partly drawn) [Example 32-(b), (3S)-3-(3-bromo-5-(trifluoromethoxy)phenyl)-3-(2-(4-((5-fluoro-1,4,5,6-tetrahydropyrimidin-2-yl)amino)-1H-indazole-6-carboxamido)acetamido)propanoic acid]	< 3
O=C(O)C[C@H](NC(=O)CNC(=O)c1cc(NC2=NCC(F)CN2)c2cn[nH]c2c1)c1cc(OC(F)(F)F)ccc1F (stereo partly drawn) [Example 33-(b), (3S)-3-(2-(4-((5-fluoro-1,4,5,6-tetrahydropyrimidin-2-yl)amino)-1H-indazole-6-carboxamido)acetamido)-3-(2-fluoro-5-(trifluoromethoxy)phenyl)propanoic acid]	< 3
O=C(O)C[C@H](NC(=O)CNC(=O)c1cc(NC2=NCC(F)CN2)c2cn[nH]c2c1)c1ccc(F)c(OC(F)(F)F)c1 (stereo partly drawn) [Example 34-(b), (3S)-3-(2-(4-((5-fluoro-1,4,5,6-tetrahydropyrimidin-2-yl)amino)-1H-indazole-6-carboxamido)acetamido)-3-(4-fluoro-3-(trifluoromethoxy)phenyl)propanoic acid]	< 3
O=C(O)C[C@H](NC(=O)CNC(=O)c1cc(NC2=NCC(F)CN2)c2cn[nH]c2c1)c1cccc(C(F)(F)F)c1 (stereo partly drawn) [Example 35-(b), (3S)-3-(2-(4-((5-fluoro-1,4,5,6-tetrahydropyrimidin-2-yl)amino)-1H-indazole-6-carboxamido)acetamido)-3-(3-(trifluoromethyl)phenyl)propanoic acid]	< 3
O=C(O)C[C@H](NC(=O)CNC(=O)c1cc(NC2=NCC(F)CN2)c2cn[nH]c2c1)c1cccc(OC(F)(F)F)c1 (stereo partly drawn) [Example 36-(b), (3S)-3-(2-(4-((5-fluoro-1,4,5,6-tetrahydropyrimidin-2-yl)amino)-1H-indazole-6-carboxamido)acetamido)-3-(3-(trifluoromethoxy)phenyl)propanoic acid]	< 3
O=C(O)C[C@H](NC(=O)CNC(=O)c1cc(NC2=NCC(F)CN2)c2cn[nH]c2c1)c1cccc(OC(F)F)c1 (stereo partly drawn) [Example 37-(b), (3S)-3-(3-(difluoromethoxy)phenyl)-3-(2-(4-((5-fluoro-1,4,5,6-tetrahydropyrimidin-2-yl)amino)-1H-indazole-6-carboxamido)acetamido)propanoic acid]	< 3
O=C(O)C[C@H](NC(=O)CNC(=O)c1cc(NC2=NCC(F)CN2)c2cn[nH]c2c1)c1cccc(C(F)F)c1 (stereo partly drawn) [Example 38-(b), (3S)-3-(3-(difluoromethyl)phenyl)-3-(2-(4-((5-fluoro-1,4,5,6-tetrahydropyrimidin-2-yl)amino)-1H-indazole-6-carboxamido)acetamido)propanoic acid]	< 3
O=C(O)C[C@H](NC(=O)CNC(=O)c1cc(NC2=NCC(F)CN2)c2cn[nH]c2c1)c1cccc(C2CC2)c1 (stereo partly drawn) [Example 39-(b), (3S)-3-(3-cyclopropylphenyl)-3-(2-(4-((5-fluoro-1,4,5,6-tetrahydropyrimidin-2-yl)amino)-1H-indazole-6-carboxamido)acetamido)propanoic acid]	< 3
O=C(O)C[C@H](NC(=O)CNC(=O)c1cc(NC2=NCC(F)CN2)c2cn[nH]c2c1)c1cccc(OC2CC2)c1 (stereo partly drawn) [Example 40-(b), (3S)-3-(3-cyclopropoxyphenyl)-3-(2-(4-((5-fluoro-1,4,5,6-tetrahydropyrimidin-2-yl)amino)-1H-indazole-6-carboxamido)acetamido)propanoic acid]	< 3
O=C(O)C[C@H](NC(=O)CNC(=O)c1cc(NC2=NCC(F)CN2)c2cn[nH]c2c1)c1cccc(Cl)c1 (stereo partly drawn) [Example 41-(b), (3S)-3-(3-chlorophenyl)-3-(2-(4-((5-fluoro-1,4,5,6-tetrahydropyrimidin-2-yl)amino)-1H-indazole-6-carboxamido)acetamido)propanoic acid]	< 3
O=C(O)C[C@H](NC(=O)CNC(=O)c1cc(NC2=NCC(F)CN2)c2cn[nH]c2c1)c1cccc(Br)c1 (stereo partly drawn) [Example 42-(b), (3S)-3-(3-bromophenyl)-3-(2-(4-((5-fluoro-1,4,5,6-tetrahydropyrimidin-2-yl)amino)-1H-indazole-6-carboxamido)acetamido)propanoic acid]	< 3
O=C(O)C[C@H](NC(=O)CNC(=O)c1cc(NC2=NCC(F)CN2)c2cn[nH]c2c1)c1cccc(-n2cccn2)c1 (stereo partly drawn) [Example 43-(b), (3S)-3-(3-(1H-pyrazol-1-yl)phenyl)-3-(2-(4-((5-fluoro-1,4,5,6-tetrahydropyrimidin-2-yl)amino)-1H-indazole-6-carboxamido)acetamido)propanoic acid]	< 3
Cc1cc(C)n(-c2cccc([C@H](CC(=O)O)NC(=O)CNC(=O)c3cc(NC4=NCC(F)CN4)c4cn[nH]c4c3)c2)n1 (stereo partly drawn) [Example 44-(b), (3S)-3-(3-(3,5-dimethyl-1H-pyrazol-1-yl)phenyl)-3-(2-(4-((5-fluoro-1,4,5,6-tetrahydropyrimidin-2-yl)amino)-1H-indazole-6-carboxamido)acetamido)propanoic acid]	< 3
